The record followed here is article PMC2096561 (2004).

The experiment deals with GPR80 (GPR99, proposed P2Y15) (Homo sapiens, UniProt Q96P68). Briefly: [3H]inositol phosphate accumulation in GPR80-expressing CHO and HEK293 cells. The class given is cell-based.

The structures appear in SMILES notation.

GPR80 (GPR99, proposed P2Y15), sequence (Q96P68 whole entry): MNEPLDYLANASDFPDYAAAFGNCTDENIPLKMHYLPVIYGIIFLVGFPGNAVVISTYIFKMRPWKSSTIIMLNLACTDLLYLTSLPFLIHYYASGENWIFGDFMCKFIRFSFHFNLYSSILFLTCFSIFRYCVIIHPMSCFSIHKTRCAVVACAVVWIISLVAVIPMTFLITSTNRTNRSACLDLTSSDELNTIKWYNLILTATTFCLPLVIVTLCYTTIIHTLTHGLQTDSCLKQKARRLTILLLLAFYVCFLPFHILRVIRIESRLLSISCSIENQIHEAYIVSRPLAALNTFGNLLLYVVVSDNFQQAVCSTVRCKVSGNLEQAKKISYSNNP

As a reminder, the EC50 is the concentration giving half of the maximal effect. Consider `O=C(O)CCC(=O)C(=O)O` [α-ketoglutarate], for which the EC50 was 140 ± 10 µM.
